Tested on: PFMCs from TB infected patients
Experiment: IFN-γ production by pleural fluid cells (PFMCs) of tuberculosis patients
Assay type: cell-based, human
Details: 0.1, 0.5, 1 μg/ml, 48 h
Description: (2) Isolation of Pleural fluid cells (PFMCs, namely cells stimulated by tuberculosis bacteria infection) from patients suffering from tuberculosis: blood samples were taken from volunteers (vein blood of TB patients) and then anticoagulated with heparin and diluted with an equal volume of Hank's solution. The solution was centrifuged once (1800 rpm, 22° C. 8 minutes). After removal of the supernatant, an appropriate amount of ELS (erythrocyte lysate) was added for re-suspension. After 3-5 minutes, an appropriate amount of Hank's solution was added for stop and then the mixture was centrifuged twice (1800 rpm, 22° C. 8 minutes), followed by addition of RPMI1640 complete medium to adjust the PBMC cell concentration to 2×10^9 cells/L.
(3) PBMCs and PFMCs cell culture (MLC) with stimulation by a pharmaceutical: Icariside I was used at concentrations of 0.1 μg/ml, 0.5 μg/ml, and 1 μg/ml respectively to stimulate PBMCs and PFMCs under the incubation condition at 37° C. with 5% CO2 for 48 hours.
(4) ELISA assay for analysis of IFN-γ: according to the method stated in Example 5 (4), the levels of γ-interferon produced by PBMCs and PFMCs after culture with pharmaceutical stimulations were measured. […]

COc1ccc(-c2oc3c(CC=C(C)C)c(O[C@@H]4O[C@H](CO)[C@@H](O)[C@H](O)[C@H]4O)cc(O)c3c(=O)c2O)cc1 [icariside I]
effect on PFMCs in producing IFN-γ: significant and dose dependent effect

From US11117919B2, “Icariside compound, preparation method thereof, and application thereof” (FOSHAN GOLDEN HEALTH TECHNOLOGY CO., LTD., priority 2015, dated 2021)
